Assay results taken from patent US6162925A, “Antibiotic for methicillin resistant bacteria” (Research Corporation Tech., Inc., priority 1999, dated 2000).
Converted amounts (≈) assume the structure as drawn.

Key:
[1] = Stability in 0.1 M phosphate buffer pH=5; format: physicochemical; conditions: 0.1 M phosphate buffer at pH=5
Description: Compound 36 (10 mg, 0.012 mmol) was treated with anisole (0.1 mL) and TFA (1.0 mL) at 0° C. The mixture was stirred for 1 h at room temperature, concentrated and purified by PTLC (silica gel, CH2 Cl2 : MeOH, 6:1) to give 6.0 mg of a semi-solid. To a solution of this substance (6 mg, 0.0066 mmol, 1.0 eq) in MeOH (1.0 mL)/CH2 Cl2 (0.5 mL) was added PdCl2 (8.0 mg) After degassing with N2, the reaction mixture was charged with H2 (1 atm.) and the mixture was hydrogenated for 10 min. The mixture was then purged with nitrogen, and filtered to remove the catalyst. The filtrate was concentrated and dried in vacuo to give a 2HCl salt of TAN-1057 C/D (1:1, 3 mg ~100% yield) as an amorphous solid. ^1 H NMR (300 MHz, DMSO-d6 vs TMS): δ1.51 (4H, m); 2.82 (3H, s); 2.70-2.90 (2H, m); 3.09 (2H, m); 3.43 (1H, m); 3.79 (2H, m); 4.66 (1/2H, m); 4.75 (1/2H, m); 7.26 (6H, m); 7.86 (1H, br); 8.06 (1H, br); 8.70 (2H, br); 9.15 (1H, br); 10.35 (1H, br) ppm. MS (FAB): Calcd. for (C13 H25 N9 O3 +H)=356.2. Found: (M+H)=356.3; (M+2H)^++ =178.7.

[2] = Antibiotic activity by bioassay against authentic TAN-1057 A/B; format: cell-based; conditions: compared with authentic TAN-1057 A/B (Takeda)
Description: To a solution of 29 (40 mg, 0.045 mmol, 1.0 eq) in MeOH (1.5 mL)/CH2 Cl2 (0.5 mL) was added PdCl2 (40 mg). The reaction flask was degassed and charged with H2 (1 atm). The mixture was stirred for 30 min. The mixture was then purged with nitrogen, and filtered to remove the catalyst. The filtrate was concentrated and dried in vacuo to give a 2HCl salt of TAN-1057 A/B (1/2) (1:1, 20 mg, 100% yield) as an amorphous solid. This product was identical in mobility by HPLC, mnr and antibiotic activity by bioassay to authentic TAN-1057 A/B (Takeda). ^1 HNMR (300 MHz, D2 O): δ1.77 (4H, m); 2.85 (1H, dd, J=18, 9.3 Hz); 3.00 (1H, dd, J=18, 4.0 Hz); 3.17 (3H, s); 3.27 (2H, t, J=6.0 Hz); 3.70 (1H, m); 3.99 (2H, m); 5.14 (1H, dd, J=12, 8.5 Hz) ppm; IR (KBr pellet): 3350, 3179, 2955, 1696, 1622, 1395, 1205, 1135 cm^1. MS (ES^+): Calcd. (C13 H25 N9 O3 +H)=356.2, Found (M+H)=356.4.

[3] = system: Staphylococcus aureus ATCC 29213; assay: MIC, broth microdilution (NCCLS), S. aureus ATCC 29213; format: cell-based; conditions: ATCC29213, S. aureus ATCC 29213, reference strain, 35° C., 20 h, read-out: Minimal Inhibitory Concentration (MIC)
Description: (§1) Test compounds were assayed against Staphylococcus aureus FDA 209P by the 10 fold agar disc diffusion assay on BHI-plates at pH=7 and pH=9 in accordance with the procedure from the National Committee for Clinical Laboratory Standards 1989. Susceptibility testing. A panel of 16 bacteria was used to evaluate the antimicrobial activity of the compounds (Table 2). The MIC of each antimicrobial agent was determined using a microdilution method according to NCCLS standards^1. Serial twofold dilutions of antibiotics were prepared in Mueller-Hinton broth (Difco Laboratories, Detroit, Mich.). Bacteria were grown to early log phase at 35° C. (1 hours) in Mueller-Hinton broth and cultures were diluted to achieve a final inoculum of 5×10^5 CFU per ml. Microtiter plates were incubated at 35° C. for 20 h and then were read using a Thermomax microplate reader (Molecular Devices, Sunnyvale, Calif.) and a microtiter plate reading mirror. The MIC was defined as the lowest concentration of antibiotic which inhibited the development of visible growth at the end of the incubation period. The standard reference strains were Staphyloccocus aureus ATCC […], Enterococcus faecalis ATCC 29212, E. faecium ATCC 35667, Escherichia coli ATCC 25922, and Pseudomonas aeruginosa ATCC 27853. Imipenem and vancomycin were used as antibiotic controls and values for reference strains were in accordance with the NCCLS.
Staphylococcus ATCC Reference strain

[4] = system: Staphylococcus aureus COL8A; assay: MIC, broth microdilution (NCCLS), S. aureus COL8A; format: cell-based; conditions: 20 h, read-out: Minimal Inhibitory Concentration (MIC)
Description: as §1
(§2) Staphylococcus Methicillin
aureus COL8A susceptible, […]

[5] = system: Staphylococcus aureus PC1; assay: MIC, broth microdilution (NCCLS), S. aureus PC1; format: cell-based; conditions: S. aureus PC1, Type A βlactamase hyperproducer, 35° C., 20 h, read-out: Minimal Inhibitory Concentration (MIC)
Description: as §1
Staphylococcus Type A βlactamase
aureus PC1 hyperproducer

[6] = system: Staphylococcus aureus sa ATCC 13709; assay: MIC, broth microdilution (NCCLS), S. aureus sa ATCC 13709; format: cell-based; conditions: ATCC13709, S. aureus sa ATCC 13709, Smith strain, 35° C., 20 h, read-out: Minimal Inhibitory Concentration (MIC)
Description: as §1

[7] = system: Staphylococcus aureus COL; assay: MIC, broth microdilution (NCCLS), S. aureus COL; format: cell-based; conditions: S. aureus COL, methicillin resistant, β-lactamase negative, 35° C., 20 h, read-out: Minimal Inhibitory Concentration (MIC)
Description: as §1, §2
aureus COL resistant, β-

Staphylococcus aureus 76 = assay: MIC, broth microdilution (NCCLS), S. aureus 76; format: cell-based; conditions: Staphylococcus aureus; S. aureus 76, methicillin resistant, β-lactamase positive; 35° C., 20 h; read-out: Minimal Inhibitory Concentration (MIC)
Description: as §1, §2

[8] = system: Staphylococcus aureus ATCC 33593; assay: MIC, broth microdilution (NCCLS), S. aureus ATCC 33593; format: cell-based; conditions: ATCC33593, S. aureus ATCC 33593, methicillin resistant, β-lactamase positive, 35° C., 20 h, read-out: Minimal Inhibitory Concentration (MIC)
Description: as §1
Staphylococcus ATCC Methicillin
aureus ATCC 33593 resistant, β-

[9] = system: Staphylococcus aureus sa201; assay: MIC, broth microdilution (NCCLS), S. aureus sa201; format: cell-based; conditions: S. aureus sa201, clinical isolate Spain, methicillin resistant, β-lactamase positive, 35° C., 20 h, read-out: Minimal Inhibitory Concentration (MIC)
Description: as §1
Staphylococcus Clinical isolate,
aureus sa201 Spain resistant, β-

[10] = system: Staphylococcus haemolyticus UA281; assay: MIC, broth microdilution (NCCLS), S. haemolyticus UA281; format: cell-based; conditions: S. haemolyticus UA281, methicillin resistant, 35° C., 20 h, read-out: Minimal Inhibitory Concentration (MIC)
Description: as §1, §2
haemolyticus UA281 resistant

[11] = system: Enterococcus faecalis ATCC 29212; assay: MIC, broth microdilution (NCCLS), E. faecalis ATCC 29212; format: cell-based; conditions: ATCC29212, E. faecalis ATCC 29212, reference strain, 35° C., 20 h, read-out: Minimal Inhibitory Concentration (MIC)
Description: as §1
(§3) Enterococcus ATCC Reference strain

[12] = system: Enterococcus faecium ATCC 35667; assay: MIC, broth microdilution (NCCLS), E. faecium ATCC 35667; format: cell-based; conditions: ATCC35667, E. faecium ATCC 35667, reference strain, 35° C., 20 h, read-out: Minimal Inhibitory Concentration (MIC)
Description: as §1, §3

[13] = system: Enterococcus faecium BM4147; assay: MIC, broth microdilution (NCCLS), E. faecium BM4147; format: cell-based; conditions: E. faecium BM4147, vancomycin resistant, vanA, 35° C., 20 h, read-out: Minimal Inhibitory Concentration (MIC)
Description: as §1
Enterococcus Vancomycin
faecium BM4147 resistant, vanA

[14] = system: Enterococcus faecium efm040; assay: MIC, broth microdilution (NCCLS), E. faecium efm040; format: cell-based; conditions: E. faecium efm040, clinical isolate U.S.A., ampicillin resistant, 35° C., 20 h, read-out: Minimal Inhibitory Concentration (MIC)
Description: as §1
Enterococcus Clinical isolate,
faecium efm040 U.S.A. resistant

[15] = system: Escherichia coli ATCC 25922; assay: MIC, broth microdilution (NCCLS), E. coli ATCC 25922; format: cell-based; conditions: ATCC25922, E. coli ATCC 25922, reference strain, 35° C., 20 h, read-out: Minimal Inhibitory Concentration (MIC)
Description: as §1

[16] = system: Pseudomonas Aeruginosa ATCC 27853; assay: MIC, broth microdilution (NCCLS), P. aeruginosa ATCC 27853; format: cell-based; conditions: ATCC27853, P. aeruginosa ATCC 27853, reference strain, 35° C., 20 h, read-out: Minimal Inhibitory Concentration (MIC)
Description: as §1

MRSA = conditions: cited from earlier work
[17] = system: Gram-positive and Gram-negative bacteria; conditions: S- versus R-configuration in the heterocyclic portion; cited from earlier work
[18] = cited from earlier work
[19] = cited from earlier work; remark: listed apart in the source

For CN1C(=O)C[C@H](CCCNC(=N)N)NC(=O)C1CNC(=N)NC(N)=O (stereo partly drawn) [TAN-1057 C/D, [[[[5-[3-[(aminoiminomethyl)amino]propyl]hexahydro-(2S/R,5S)-1-methyl-3,7-dioxo-1H-1,4-diazepin-2-yl]methyl]amino]iminomethyl]urea], the “reversion upon standing in phosphate buffer” value [1] was “reverted to a mixture of 1 and 2”.

In the case of CN(C(=O)C[C@@H](N)CCCNC(=N)N)C1CNC(NC(N)=O)=NC1=O (stereo partly shown) [TAN-1057 A/B, 3S,5'S/R-3-amino-6-[(aminoiminomethyl)amino]-N-[2-[(aminocarbonyl)amino]-1,4,5,6-tetrahydro-4-oxo-5-pyrimidinyl)-N-methyl-hexanamide], the “antibiotic activity by bioassay” value [2] is reported as “identical”.

For CN(C(=O)C[C@@H](N)CCCNC(=N)N)[C@H]1CNC(NC(N)=O)=NC1=O [TAN-1057A], the MIC [3] was 16 µg/mL (≈ 45 µM), the MIC [4] was 16 µg/mL (≈ 45 µM) and the MIC [5] was 8 µg/mL (≈ 22.5 µM). The MIC [6] was 16 µg/mL (≈ 45 µM), the MIC [7] was 16 µg/mL (≈ 45 µM) and the MIC (Staphylococcus aureus 76) was 16 µg/mL (≈ 45 µM). The MIC [8] was 16 µg/mL (≈ 45 µM), the MIC [9] was 16 µg/mL (≈ 45 µM) and the MIC [10] was 32 µg/mL (≈ 90 µM). It also gave an MIC [11] of 32 µg/mL (≈ 90 µM), an MIC [12] of 32 µg/mL (≈ 90 µM) and an MIC [13] of 32 µg/mL (≈ 90 µM). It also gave an MIC [14] of 128 µg/mL (≈ 360 µM), an MIC [15] of 256 µg/mL (≈ 720 µM) and an MIC [16] of 256 µg/mL (≈ 720 µM). The “activity against MRSA” value (MRSA) was “potent activity against all of the MRSA strains evaluated”, the “relative antibacterial activity of stereoisomers” value [17] was “more active than TAN-1057 B and C” and the “comparison to vancomycin in mice” value [18] was “compare very favorably to vancomycin in mice”. The hydrolysis ([19]; acidic and basic media, racemization of α-amino acid stereogenic center) was “occurs in both acidic and basic media” and the “loss of antibacterial activity in basic aqueous solutions” value ([19]; basic aqueous solutions, hydrolytic opening of six-membered ring) was “gradually lost their antibacterial activities in basic aqueous solutions”.
